Publication PMC11714206, “Massively Parallel Screening of Toll/Interleukin‐1 Receptor (TIR)‐Derived Peptides Reveals Multiple Toll‐Like Receptors (TLRs)‐Targeting Immunomodulatory Peptides” (Advanced Science, 2024)
One block for each compound: values may come before it. Where no end group is shown, it is not given here.

Legend:
[1] = set-up: method as in PMID 19661804; details: possibly due to late administration; cited from earlier work
Description: (§1) Treatment of macrophage cells with synthetic TDIPs containing a cell‐penetrating moiety suppressed TLR4‐dependent inflammatory pathways in a dose‐dependent manner. Moreover, the selected TDIPs exerted broad‐spectrum TLR‐inhibitory effects by inhibiting interactions between TIR domain‐containing proteins, which enhanced the therapeutic efficacy in the murine sepsis model. Although we applied TDIP simultaneously with LPS, the timing of TLR inhibitor administration remains a critical consideration. ...

[2] = test system: polymicrobial sepsis model; set-up: method as in PMID 18305095; details: administration 3 h before or 6 h after CLP surgery; cited from earlier work
Description: as §1

MAL^TIR = biological target: T1, MAL^TIR (Homo sapiens, UniProt P58753); experiment: T‐Surf phage library (P8 and P3) selection against MAL^TIR, four rounds, NGS read counts; type: binding; details: for P3_MAL Rank (after) / P3_MAL Rank (before): P3 library; for Population: 4th round of selection against MAL TIR, share of NGS reads
T1 construct: MAL (residues 79–221); 6xHis; made in house; host or cells: E. coli BL21 (DE3)
Method in brief: (§2)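 Read counts come from NGS of phage pools after the fourth selection round, barcoded by 20-cycle PCR and filtered for quality ≥30. Each round: phage incubated 1 h at RT on immobilised TIR protein (5 µg mL^−1, BSA-blocked), washed, HCl-eluted and amplified in E. coli TG1.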

MyD88^TIR = biological target: T2, MyD88^TIR (Homo sapiens, UniProt Q99836); experiment: T‐Surf phage library (P8 and P3) selection against MyD88^TIR, four rounds, NGS read counts; type: binding; details: for P3_MyD88 Rank (after) / P3_MyD88 Rank (before): P3 library; for Population: P3_MyD88 pool: P3 T-Surf phage library, 4th round of selection against MyD88 TIR, share of NGS reads
T2 construct: MyD88 (residues 148–296); 6xHis; made in house; host or cells: E. coli BL21 (DE3)
Method in brief: as §2

Serum stability analysis = type: in vitro ADME; details: human serum (Sigma H4522), 1 mM peptide in water mixed 1:1 (v/v) with serum, 37 °C, SDS‐PAGE, Coomassie band intensity (ImageJ); for half-life at 0.5 mM: 0–72 h
Protocol: (§3) Figure 6 Molecular characterization of TDIPs. (a) Co‐immunoprecipitation of TIR domains and TDIPs. Lysates of HEK293T cells expressing FLAG‐tagged TIR domains were incubated with the indicated TDIPs. Peptides were blotted with an antibody against the penetratin sequence. Created with BioRender.com. (b) Fluorescence polarization binding assay of the Cy5‐labeled TDIP1 against TIR domains of Myd88, TRAM, and MAL. Error bars represent ± SD (n = 3). (c) Human serum stability (half‐life) of the TDIPs was measured. The percentage of the remaining peptide was quantified up to 72 h. (d) The secondary structure of the selected TDIPs was determined by circular dichroism. […] (e) TDIP1 and its truncates were compared for inhibition of TLR4 signaling by using HEK‐Blue^TM hTLR4 cells. Data are presented as mean ± SD. ^****p < 0.0001. All significance is versus the LPS‐treated CP group. n.s., not significant.
The first step of the serum stability analysis was performed as previously described^[ [60] ^] with a minor modification. Human serum (Sigma‐Aldrich, H4522) was thawed on ice and centrifuged at 18 000 × g for 10 min at 4 °C to remove lipids. The supernatant was incubated at 37 °C for 15 min to activate the proteins. Each peptide was prepared at a concentration of 1 mM in ultrapure water and mixed with human serum in a 1:1 (v/v) ratio. The mixed solutions were incubated at 37 °C for various periods (0, 1, 3, 6, 12, 24, 48, and 72 h). A mixture of ultrapure water and human serum was used as the blank. A total of 3 µg of the peptide was loaded on an SDS–polyacrylamide gel and stained with InstantBlue Coomassie Protein Stain (Abcam). The intensity of the remaining peptide bands was quantified using ImageJ and plotted.

TIR domain of MyD88 = biological target: T3, TIR domain of MyD88 (Homo sapiens, UniProt Q99836); experiment: Fluorescence polarization (FP) assay, MyD88 TIR; type: binding; details: Cy5‐labeled TDIP1 50 nM, TIR domain diluted 1:1 from 40 µM, 30 min RT, ± SD, n = 3, read-out: apparent Kd against MyD88
T3 construct: MyD88 (residues 148–296); 6xHis; made in house; host or cells: E. coli BL21 (DE3)
Protocol: as §3
(§4) Fluorescence polarization assays were carried out using a 384‐well black non‐binding microplate (Corning, CLS4514). TDIP1 peptide was synthesized by ANYGEN with N‐terminal Cy5 at >95% purity. The lyophilized peptide was reconstituted in ultrapure water (Invitrogen) to a concentration of 1 mM. The peptide was diluted with 10× PBS to make a final solution of 100 nM. […] After mixing the samples, the plate was incubated for 30 min at RT and read using an Infinite M1000 (Tecan, Mannedorf, Switzerland).

TIR domain of TRAM = biological target: T4, TIR domain of TRAM (Homo sapiens, UniProt Q86XR7); experiment: Fluorescence polarization (FP) assay, TRAM TIR; type: binding; details: Cy5‐labeled TDIP1 50 nM, TIR domain diluted 1:1 from 40 µM, 30 min RT, ± SD, n = 3, read-out: apparent Kd against TRAM
T4 construct: purified TIR domains of MyD88, TRAM, and MAL
Protocol: as §3, §4

TIR domain of MAL = biological target: T5, TIR domain of MAL (Homo sapiens, UniProt P58753); experiment: Fluorescence polarization (FP) assay, MAL TIR; type: binding; details: Cy5‐labeled TDIP1 50 nM, TIR domain diluted 1:1 from 40 µM, 30 min RT, ± SD, n = 3, read-out: apparent Kd against MAL
T5 construct: MAL (residues 79–221); 6xHis; made in house; host or cells: E. coli BL21 (DE3)
Protocol: as §3, §4

[3] = P3_MyD88: rank by count after grouping
[4] = P3_MyD88: rank by count before grouping
[5] = P3_MAL: rank by count after grouping
[6] = P3_MAL: rank by count before grouping
[7] = selection against MyD88, rank after grouping
[8] = selection against MyD88, rank before grouping
[9] = P3_MAL pool: P3 T-Surf phage library

T1 sequence (P58753 79-221): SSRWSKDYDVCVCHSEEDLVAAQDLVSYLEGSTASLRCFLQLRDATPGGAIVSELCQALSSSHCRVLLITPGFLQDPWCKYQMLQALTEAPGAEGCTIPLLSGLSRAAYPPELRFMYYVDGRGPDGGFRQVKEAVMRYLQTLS
T2 sequence (Q99836 148-296): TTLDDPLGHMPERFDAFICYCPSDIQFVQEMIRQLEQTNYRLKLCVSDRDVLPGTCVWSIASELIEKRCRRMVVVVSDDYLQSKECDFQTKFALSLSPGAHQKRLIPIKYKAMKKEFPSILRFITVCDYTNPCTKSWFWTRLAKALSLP
T5 sequence (P58753 79-221): as the sequence (P58753 79-221) above
T3 sequence (Q99836 148-296): as the sequence (Q99836 148-296) above
T4 sequence (Q86XR7 73-229 limits assumed): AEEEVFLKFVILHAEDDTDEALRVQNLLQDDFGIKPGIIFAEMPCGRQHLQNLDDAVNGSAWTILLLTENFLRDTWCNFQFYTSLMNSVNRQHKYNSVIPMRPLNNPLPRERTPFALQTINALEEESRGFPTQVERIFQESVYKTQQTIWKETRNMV

Compound: CCCCCC/C=C\CCCCCCCCCC(=O)N[C@H]1[C@H](OC[C@H]2O[C@H](OP(=O)(O)O)[C@H](NC(=O)CC(=O)CCCCCCCCCCC)[C@@H](OCCCCCCCCCC)[C@@H]2O)O[C@H](COC)[C@@H](OP(=O)(O)O)[C@@H]1OCC[C@@H](CCCCCCC)OC [Eritoran tetrasodium]
outcome in clinical trials [1]: failed in clinical trials

Compound: CCN(CC)CCCC(C)Nc1ccnc2cc(Cl)ccc12 (centres unmarked) [chloroquine]
survival in polymicrobial sepsis model [2]: markedly improved survival

P3_MAL Rank (after) (MAL^TIR; selection against MAL TIR, rank by count after grouping): 198
P3_MAL Rank (before) (MAL^TIR; selection against MAL TIR, rank by count before grouping): 1055
Rank (after) (MyD88^TIR; [3]): 184
Rank (before) (MyD88^TIR; [4]): 1269
Compound: NQWRNALYEAANLS

Rank (after) (MAL^TIR; P8_MAL: rank by count after grouping): 107
Rank (before) (MAL^TIR; P8_MAL: rank by count before grouping): 654
Rank (after) (MyD88^TIR; P8_MyD88: rank by NGS read count after grouping): 907
Rank (before) (MyD88^TIR; P8_MyD88: rank by NGS read count before grouping): 3395
Compound: RGFLSHLRHHLQAKDH

Rank (after) (MAL^TIR; [5]): 136
Rank (before) (MAL^TIR; [6]): 436
Rank (after) (MyD88^TIR; [3]): 130
Rank (before) (MyD88^TIR; [4]): 708
Compound: RLLKWKEALHQFHSW

Population (MAL^TIR; P8_MAL pool: P8 T-Surf phage library): 0.0034%
P8_MyD88 Rank (after) (MyD88^TIR; P8 library, selection against MyD88, rank after grouping): 483
P8_MyD88 Rank (before) (MyD88^TIR; P8 library, selection against MyD88, rank before grouping): 3397
Compound: RNFVAYLFQALANKGI

Compound: RQIKIWFQNRRMKWKKLFFWESLKQLLRSDGR [TDIP6]
remaining peptide after 48 h of incubation in human serum (Serum stability analysis): up to 50%

Compound: RQIKIWFQNRRMKWKKLVAHEISKKMKIFATI [TDIP20]
half-life at 0.5 mM (Serum stability analysis): < 60 min

Compound: RQIKIWFQNRRMKWKKTFLGHLYNALVQAGIH [TDIP5]
half-life at 0.5 mM (Serum stability analysis): ~360 min

Compound: RQIKIWFQNRRMKWKKWFYERLVSLILRDTKV [TDIP1]
Kd (TIR domain of MyD88): 2800 ± 460 nM
Kd (TIR domain of TRAM): 1460 ± 110 nM
Kd (TIR domain of MAL): 4.49 ± 0.72 µM
remaining peptide after 48 h of incubation in human serum (Serum stability analysis): up to 50%

Rank (after) (MAL^TIR; [5]): 126
Rank (before) (MAL^TIR; [6]): 360
P3_MyD88 Rank (after) (MyD88^TIR; [7]): 545
P3_MyD88 Rank (before) (MyD88^TIR; [8]): 2934
Compound: SFFGINCVIICQRRS

Population (MAL^TIR; [9]): 0.0259%
Population (MyD88^TIR): 0.00291%
Compound: SIFREGLWRLLELSKK

Population (MAL^TIR; [9]): 0.00413%
Population (MyD88^TIR): 0.00466%
Compound: SSFHEGLWRLLELSKK

Population (MAL^TIR; [9]): 0.00413%
Population (MyD88^TIR): 0.00553%
Compound: SSFREGLWHLLELSKK

P3_MAL Rank (after) (MAL^TIR; selection against MAL, rank after grouping): 558
P3_MAL Rank (before) (MAL^TIR; selection against MAL, rank before grouping): 3151
P3_MyD88 Rank (after) (MyD88^TIR; [7]): 517
P3_MyD88 Rank (before) (MyD88^TIR; [8]): 3173
Compound: SSFREGLWRLLELSKLRYAM
